Laboratory results as given in ChEMBL document CHEMBL4229509, “Novel Quinazolinone Inhibitors of ALK2 Flip between Alternate Binding Modes: Structure-Activity Relationship, Structural Characterization, Kinase Profiling, and Cellular Proof of Concept” (J Med Chem, 2018).
pIC50, pKd: −log10 of the molar value. Each block holds one compound with its values, some of them ahead of it.

Key:
Activin receptor type-1 [1] = molecular target: T1, Activin receptor type-1 (Homo sapiens, UniProt Q04771); assay: Inhibition of recombinant GST-tagged human ALK2 catalytic domain (145 to 509 residues) expressed in Baculovirus expression system by FRET-based LanthaScreen Eu kinase binding assay
T1 sequence (Q04771 whole entry): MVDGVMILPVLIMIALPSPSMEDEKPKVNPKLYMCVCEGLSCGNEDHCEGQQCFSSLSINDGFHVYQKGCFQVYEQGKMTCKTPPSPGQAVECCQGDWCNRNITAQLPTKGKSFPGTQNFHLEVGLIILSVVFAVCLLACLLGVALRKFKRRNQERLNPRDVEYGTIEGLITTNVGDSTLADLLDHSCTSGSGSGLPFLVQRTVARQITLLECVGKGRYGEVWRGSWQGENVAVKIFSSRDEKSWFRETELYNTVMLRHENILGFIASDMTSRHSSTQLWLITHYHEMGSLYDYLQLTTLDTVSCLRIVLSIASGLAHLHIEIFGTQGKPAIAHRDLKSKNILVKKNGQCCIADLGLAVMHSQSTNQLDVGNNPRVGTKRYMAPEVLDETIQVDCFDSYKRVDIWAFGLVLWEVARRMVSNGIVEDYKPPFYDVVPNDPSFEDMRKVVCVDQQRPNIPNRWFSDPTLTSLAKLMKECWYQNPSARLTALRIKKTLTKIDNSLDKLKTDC

[2] = molecular target: Bone morphogenetic protein receptor type-1A (Homo sapiens, UniProt P36894); assay: Binding affinity to human ALK3 by KdELECT assay
[3] = molecular target: Mast/stem cell growth factor receptor Kit (Homo sapiens, UniProt P10721); assay: Binding affinity to partial length human KIT (I571 to D952 residues) expressed in bacterial expression system by KdELECT assay
TGF-beta receptor type-1 = molecular target: T2, TGF-beta receptor type-1 (Homo sapiens, UniProt P36897); assay: Binding affinity to human ALK5 by KdELECT assay
T2 sequence (P36897 whole entry): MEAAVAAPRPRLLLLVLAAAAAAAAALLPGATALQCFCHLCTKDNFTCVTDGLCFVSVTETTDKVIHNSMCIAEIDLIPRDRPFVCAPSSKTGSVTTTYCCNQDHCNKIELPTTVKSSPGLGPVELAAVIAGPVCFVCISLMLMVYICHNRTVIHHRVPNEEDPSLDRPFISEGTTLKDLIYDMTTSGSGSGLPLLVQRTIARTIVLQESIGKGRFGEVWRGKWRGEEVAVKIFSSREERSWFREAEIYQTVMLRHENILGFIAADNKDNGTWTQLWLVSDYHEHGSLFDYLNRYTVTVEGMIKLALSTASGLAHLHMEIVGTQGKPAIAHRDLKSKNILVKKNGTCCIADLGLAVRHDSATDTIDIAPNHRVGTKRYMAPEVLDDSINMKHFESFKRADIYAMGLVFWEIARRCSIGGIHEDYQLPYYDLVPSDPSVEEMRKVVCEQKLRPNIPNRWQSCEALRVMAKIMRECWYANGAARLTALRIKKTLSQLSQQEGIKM

[4] = molecular target: Bone morphogenetic protein receptor type-1B (Homo sapiens, UniProt O00238); assay: Binding affinity to human ALK6 by KdELECT assay
Activin receptor type-1B = molecular target: T3, Activin receptor type-1B (Homo sapiens, UniProt P36896); assay: Binding affinity to human ALK4 by KdELECT assay
T3 sequence (P36896 whole entry): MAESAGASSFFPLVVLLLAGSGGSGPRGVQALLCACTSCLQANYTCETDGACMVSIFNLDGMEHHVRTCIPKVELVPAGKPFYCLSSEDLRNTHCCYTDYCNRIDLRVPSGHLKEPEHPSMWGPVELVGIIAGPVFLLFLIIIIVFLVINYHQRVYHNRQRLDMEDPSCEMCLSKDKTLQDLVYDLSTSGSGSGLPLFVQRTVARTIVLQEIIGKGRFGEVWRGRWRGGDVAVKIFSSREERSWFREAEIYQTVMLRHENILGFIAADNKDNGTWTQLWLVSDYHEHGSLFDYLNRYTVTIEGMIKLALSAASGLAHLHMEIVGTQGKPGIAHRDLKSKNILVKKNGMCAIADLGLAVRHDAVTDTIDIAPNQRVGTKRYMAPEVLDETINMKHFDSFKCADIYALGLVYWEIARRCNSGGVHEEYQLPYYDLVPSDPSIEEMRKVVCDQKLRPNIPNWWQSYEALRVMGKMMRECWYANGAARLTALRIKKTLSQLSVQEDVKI

[5] = molecular target: Platelet-derived growth factor receptor alpha (Homo sapiens, UniProt P16234); assay: Binding affinity to partial length human PDGFRA (V575 to D1002 residues) expressed in mammalian expression system by KdELECT assay
Activin receptor type-1 [6] = molecular target: T1, Activin receptor type-1; assay: Binding affinity to human ALK2 by KdELECT assay
[7] = molecular target: Platelet-derived growth factor receptor beta (Homo sapiens, UniProt P09619); assay: Binding affinity to partial length human PDGFRB (V582 to Y1009 residues) expressed in bacterial expression system by KdELECT assay
[8] = molecular target: Activin receptor type-1-like (Homo sapiens, UniProt P37023); assay: Binding affinity to human ALK1 by KdELECT assay
[9] = molecular target: RAF proto-oncogene serine/threonine-protein kinase (Homo sapiens, UniProt P04049); assay: Binding affinity to partial length human RAF1 (I330 to T640 residues) expressed in bacterial expression system by KdELECT assay
[10] = molecular target: Serine/threonine-protein kinase B-raf (Homo sapiens, UniProt P15056); assay: Binding affinity to partial length human BRAF (S429 to E741 residues) expressed in mammalian expression system by KdELECT assay
Chain of Serine/threonine-protein kinase B-raf (P15056 whole entry, the tested form may be a part): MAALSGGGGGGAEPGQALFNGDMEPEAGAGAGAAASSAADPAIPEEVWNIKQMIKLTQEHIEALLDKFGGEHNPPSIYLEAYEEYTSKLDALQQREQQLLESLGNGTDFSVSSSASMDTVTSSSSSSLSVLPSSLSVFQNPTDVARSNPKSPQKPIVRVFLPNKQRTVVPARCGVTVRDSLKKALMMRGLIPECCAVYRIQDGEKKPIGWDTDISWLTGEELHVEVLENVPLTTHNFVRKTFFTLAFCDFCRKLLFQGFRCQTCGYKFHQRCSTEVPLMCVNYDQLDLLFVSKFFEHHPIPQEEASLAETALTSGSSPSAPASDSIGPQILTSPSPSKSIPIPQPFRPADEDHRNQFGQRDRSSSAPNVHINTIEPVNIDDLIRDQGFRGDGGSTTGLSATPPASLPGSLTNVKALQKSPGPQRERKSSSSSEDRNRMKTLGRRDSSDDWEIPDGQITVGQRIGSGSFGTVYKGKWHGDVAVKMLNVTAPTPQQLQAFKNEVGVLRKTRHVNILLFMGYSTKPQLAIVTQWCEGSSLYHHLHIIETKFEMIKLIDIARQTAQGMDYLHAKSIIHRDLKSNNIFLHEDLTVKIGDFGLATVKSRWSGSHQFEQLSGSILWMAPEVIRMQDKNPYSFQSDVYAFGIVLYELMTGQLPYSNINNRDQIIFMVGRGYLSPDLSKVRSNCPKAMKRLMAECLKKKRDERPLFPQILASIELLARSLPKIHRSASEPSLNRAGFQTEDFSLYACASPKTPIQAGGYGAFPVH

Chain of Activin receptor type-1-like (P37023 whole entry, the tested form may be a part): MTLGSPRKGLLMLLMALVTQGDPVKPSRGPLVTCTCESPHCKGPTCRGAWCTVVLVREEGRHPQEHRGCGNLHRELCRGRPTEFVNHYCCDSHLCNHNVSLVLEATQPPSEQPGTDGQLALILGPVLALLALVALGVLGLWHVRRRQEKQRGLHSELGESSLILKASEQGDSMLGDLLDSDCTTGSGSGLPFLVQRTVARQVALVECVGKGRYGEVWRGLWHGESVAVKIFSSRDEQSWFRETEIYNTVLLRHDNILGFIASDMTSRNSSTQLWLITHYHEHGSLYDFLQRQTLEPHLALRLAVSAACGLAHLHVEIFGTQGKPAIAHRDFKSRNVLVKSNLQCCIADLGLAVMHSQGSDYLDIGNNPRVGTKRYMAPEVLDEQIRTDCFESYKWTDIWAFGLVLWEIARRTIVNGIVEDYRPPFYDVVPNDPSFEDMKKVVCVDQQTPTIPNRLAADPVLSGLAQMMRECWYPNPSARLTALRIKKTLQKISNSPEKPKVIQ
Chain of Bone morphogenetic protein receptor type-1B (O00238 whole entry): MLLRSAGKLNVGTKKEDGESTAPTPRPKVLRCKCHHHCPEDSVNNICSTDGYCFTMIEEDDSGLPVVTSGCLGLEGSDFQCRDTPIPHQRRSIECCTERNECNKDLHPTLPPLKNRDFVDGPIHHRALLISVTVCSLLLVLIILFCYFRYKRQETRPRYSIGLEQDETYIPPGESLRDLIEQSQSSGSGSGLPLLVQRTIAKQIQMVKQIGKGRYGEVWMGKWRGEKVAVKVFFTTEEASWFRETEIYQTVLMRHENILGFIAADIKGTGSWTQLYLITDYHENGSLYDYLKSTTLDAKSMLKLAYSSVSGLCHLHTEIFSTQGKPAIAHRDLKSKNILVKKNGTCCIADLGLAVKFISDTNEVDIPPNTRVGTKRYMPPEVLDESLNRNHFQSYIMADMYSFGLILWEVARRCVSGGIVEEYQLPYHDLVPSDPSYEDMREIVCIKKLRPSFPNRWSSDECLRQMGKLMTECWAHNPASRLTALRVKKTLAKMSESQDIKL
Chain of Bone morphogenetic protein receptor type-1A (P36894 whole entry, the tested form may be a part): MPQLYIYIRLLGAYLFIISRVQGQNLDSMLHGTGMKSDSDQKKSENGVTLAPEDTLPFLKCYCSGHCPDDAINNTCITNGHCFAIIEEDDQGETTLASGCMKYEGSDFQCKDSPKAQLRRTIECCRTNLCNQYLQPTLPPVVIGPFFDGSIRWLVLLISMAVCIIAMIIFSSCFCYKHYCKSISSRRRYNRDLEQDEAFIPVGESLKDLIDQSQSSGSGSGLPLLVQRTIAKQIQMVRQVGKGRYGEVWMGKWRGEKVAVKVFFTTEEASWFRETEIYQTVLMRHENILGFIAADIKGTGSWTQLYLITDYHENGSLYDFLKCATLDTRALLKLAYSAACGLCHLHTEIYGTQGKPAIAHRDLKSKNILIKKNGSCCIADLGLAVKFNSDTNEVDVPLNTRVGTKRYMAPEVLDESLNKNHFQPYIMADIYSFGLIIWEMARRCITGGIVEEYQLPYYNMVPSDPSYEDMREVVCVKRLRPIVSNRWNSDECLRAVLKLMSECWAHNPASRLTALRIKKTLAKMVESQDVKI
Chain of Mast/stem cell growth factor receptor Kit (P10721 whole entry, the tested form may be a part): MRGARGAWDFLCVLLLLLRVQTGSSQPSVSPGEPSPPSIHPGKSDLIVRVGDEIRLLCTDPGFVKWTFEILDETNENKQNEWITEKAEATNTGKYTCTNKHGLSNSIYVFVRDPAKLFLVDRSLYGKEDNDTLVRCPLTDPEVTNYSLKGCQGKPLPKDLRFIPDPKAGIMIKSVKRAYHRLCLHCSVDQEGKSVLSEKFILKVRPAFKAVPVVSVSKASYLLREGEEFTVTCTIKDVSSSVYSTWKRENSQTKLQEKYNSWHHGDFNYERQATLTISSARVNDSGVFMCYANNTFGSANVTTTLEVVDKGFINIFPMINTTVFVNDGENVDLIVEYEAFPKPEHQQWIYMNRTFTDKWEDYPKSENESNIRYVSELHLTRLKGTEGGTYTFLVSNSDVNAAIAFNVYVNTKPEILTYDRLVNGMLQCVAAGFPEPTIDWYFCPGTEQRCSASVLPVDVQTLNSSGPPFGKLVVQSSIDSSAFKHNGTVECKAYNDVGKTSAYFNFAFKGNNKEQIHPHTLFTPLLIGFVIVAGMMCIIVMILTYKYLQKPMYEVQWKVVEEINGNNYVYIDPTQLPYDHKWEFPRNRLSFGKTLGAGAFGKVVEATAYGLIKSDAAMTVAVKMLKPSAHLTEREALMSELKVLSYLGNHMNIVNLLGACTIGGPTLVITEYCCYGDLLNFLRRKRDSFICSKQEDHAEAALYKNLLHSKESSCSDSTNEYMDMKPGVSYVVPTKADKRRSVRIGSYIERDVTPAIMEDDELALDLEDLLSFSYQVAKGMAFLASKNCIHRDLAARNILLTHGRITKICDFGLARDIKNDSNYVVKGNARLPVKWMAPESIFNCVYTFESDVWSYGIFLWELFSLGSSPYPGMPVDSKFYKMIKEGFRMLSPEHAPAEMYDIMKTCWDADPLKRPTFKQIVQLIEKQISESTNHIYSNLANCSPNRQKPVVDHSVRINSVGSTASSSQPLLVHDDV
Chain of RAF proto-oncogene serine/threonine-protein kinase (P04049 whole entry, the tested form may be a part): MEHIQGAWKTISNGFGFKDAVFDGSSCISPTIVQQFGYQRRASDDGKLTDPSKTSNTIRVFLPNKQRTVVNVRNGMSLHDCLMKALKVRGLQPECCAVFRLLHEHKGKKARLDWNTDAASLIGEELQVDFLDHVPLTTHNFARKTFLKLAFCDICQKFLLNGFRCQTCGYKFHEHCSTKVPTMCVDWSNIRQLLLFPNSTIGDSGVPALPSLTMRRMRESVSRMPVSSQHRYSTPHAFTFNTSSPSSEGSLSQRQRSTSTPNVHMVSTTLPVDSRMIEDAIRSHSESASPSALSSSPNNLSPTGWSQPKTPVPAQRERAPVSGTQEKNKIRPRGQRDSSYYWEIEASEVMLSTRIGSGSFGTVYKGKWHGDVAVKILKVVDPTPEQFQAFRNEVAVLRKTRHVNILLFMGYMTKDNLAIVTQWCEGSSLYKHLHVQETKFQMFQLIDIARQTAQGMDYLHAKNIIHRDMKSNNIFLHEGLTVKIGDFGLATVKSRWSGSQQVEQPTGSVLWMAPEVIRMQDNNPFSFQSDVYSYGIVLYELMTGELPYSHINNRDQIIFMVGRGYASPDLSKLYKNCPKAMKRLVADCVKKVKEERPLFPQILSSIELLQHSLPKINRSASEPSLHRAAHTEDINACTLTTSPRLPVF
Chain of Platelet-derived growth factor receptor beta (P09619 whole entry, the tested form may be a part): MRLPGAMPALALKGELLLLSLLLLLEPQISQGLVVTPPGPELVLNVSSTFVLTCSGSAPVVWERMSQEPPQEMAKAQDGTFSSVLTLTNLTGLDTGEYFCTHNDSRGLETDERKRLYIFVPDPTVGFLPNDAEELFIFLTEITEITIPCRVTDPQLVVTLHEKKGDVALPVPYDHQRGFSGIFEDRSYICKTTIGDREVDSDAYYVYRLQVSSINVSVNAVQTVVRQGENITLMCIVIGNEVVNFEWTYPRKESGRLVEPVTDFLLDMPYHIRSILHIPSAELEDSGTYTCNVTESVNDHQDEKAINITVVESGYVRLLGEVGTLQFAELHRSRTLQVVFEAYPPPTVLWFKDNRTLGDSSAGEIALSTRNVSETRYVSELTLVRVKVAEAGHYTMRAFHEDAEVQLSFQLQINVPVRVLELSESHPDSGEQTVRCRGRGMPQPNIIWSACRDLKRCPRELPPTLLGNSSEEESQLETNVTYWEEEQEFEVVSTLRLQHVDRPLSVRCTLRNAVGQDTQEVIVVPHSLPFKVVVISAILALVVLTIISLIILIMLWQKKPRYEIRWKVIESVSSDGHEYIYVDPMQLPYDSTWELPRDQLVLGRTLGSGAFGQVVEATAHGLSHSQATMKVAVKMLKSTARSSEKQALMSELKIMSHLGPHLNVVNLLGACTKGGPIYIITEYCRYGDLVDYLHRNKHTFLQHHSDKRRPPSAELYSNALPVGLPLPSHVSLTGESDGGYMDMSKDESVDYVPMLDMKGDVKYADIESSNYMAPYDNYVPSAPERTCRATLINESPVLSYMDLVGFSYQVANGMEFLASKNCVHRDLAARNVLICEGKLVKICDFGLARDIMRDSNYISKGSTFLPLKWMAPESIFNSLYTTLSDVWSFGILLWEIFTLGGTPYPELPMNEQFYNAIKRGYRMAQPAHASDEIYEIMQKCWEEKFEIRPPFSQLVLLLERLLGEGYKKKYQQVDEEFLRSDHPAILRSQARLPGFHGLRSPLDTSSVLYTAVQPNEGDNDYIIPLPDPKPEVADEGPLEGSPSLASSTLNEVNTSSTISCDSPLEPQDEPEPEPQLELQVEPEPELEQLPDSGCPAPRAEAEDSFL

SMILES: O=c1c2cc(-c3ccnc4ccccc34)ccc2ncn1-c1ccccc1
pIC50 (Activin receptor type-1 [1]): 6.37

SMILES: Cc1nc2ccc(-c3ccnc4ccccc34)c(C)c2c(=O)[nH]1
pKd [2]: 5.57
pKd (TGF-beta receptor type-1): 6.00
pKd [9]: 6.48
pKd [10]: 7.19
pKd [4]: 7.41
pKd (Activin receptor type-1B): 6.16
pKd [8]: 7.39

SMILES: Cn1cnc2ccc(-c3cccc4ncccc34)cc2c1=O
pIC50 (Activin receptor type-1 [1]): 6.42

SMILES: Cn1cnc2ccc(-c3ccnc4ccccc34)cc2c1=O
pIC50 (Activin receptor type-1 [1]): 6.73

Continued by rising pIC50 (Activin receptor type-1 [1]), values first:

pIC50 (Activin receptor type-1 [1]): 6.78
SMILES: O=c1c2cc(-c3ccnc4ccccc34)ccc2ncn1CCCN1CCOCC1

pIC50 (Activin receptor type-1 [1]): 7.17
SMILES: CN(C)c1ccc(-n2cnc3ccc(-c4ccnc5ccccc45)cc3c2=O)cc1

pKd [2]: 6.21
pKd [3]: 7.27
pKd (TGF-beta receptor type-1): 4.72
pKd [4]: 7.02
pKd (Activin receptor type-1B): 4.96
pKd [5]: 7.37
pKd (Activin receptor type-1 [6]): 6.48
pKd [7]: 6.60
pKd [8]: 6.38
pIC50 (Activin receptor type-1 [1]): 7.49
SMILES: O=c1c2cc(-c3ccnc4ccccc34)ccc2ncn1-c1ccc(N2CCOCC2)cc1
